From patent publication US4992535A, “Methods of making novel R and S diastereomers of N^6 -[(2-hydroxypropyl)aryl]adenosines” (G. D. Searle & Co., priority 1988, dated 1991)
Entries after “also recorded” stand apart in the source; their conditions may differ.

Experiments:
mice [1] = assay: Ataxia, rotating rod, in mice; assay type: in vivo, mouse; conditions: for Percent ataxic, 0.5 hour / Percent ataxic, 3 hour: 54 ± 12 mg/kg ip (pooled 32, 56, 75 mg/kg); for ataxia / motor toxicity compared to compound I, in words: ip, 0.5 or 3 hours
Description: (§1) Adenosine analogs tend to produce sedation and central nervous system depression which have prevented their therapeutic utility. The compounds of the invention, at doses which lower arterial pressure in the SHR, show no evidence of CNS depression. The ataxia produced by compounds of the present invention was measured in mice by injecting the compounds IP at doses of 32, 56, or 75 mg/kg in an aqueous suspension, n=7 per dose. The mice had previously been trained to remain on a rotating rod. After dosing, the percent of mice unable to remain on the rotating rod was determined. […] The mice were also observed at various time intervals for behavioral signs of toxicity.

central nervous system = assay: CNS toxicity / CNS depression, general statements; assay type: in vivo; conditions: summary statement
[2] = tested on: PRA in Sprague Dawley rats with renal arteries ligated; assay: Plasma renin activity (PRA) in the bilateral renal artery ligated rat; assay type: in vivo; conditions: 1 mg/kg IV; for prevention of PRA increase, in words: 30 and 60 minutes; for Change in PRA at 30 minutes: 30 minutes after dosing; for Change in PRA at 60 minutes: 60 minutes after dosing
Description: Adenosine Al receptor stimulation will inhibit the release of renin from the kidney. A stimulus for the release of renin is renal ischemia. The ability of the compounds of the present invention to prevent an increase in PRA following renal ischemia was tested in rats with both renal arteries ligated. Sprague Dawley rats were anesthetized with ether and the renal arteries were ligated. Three to five hours after anesthesia, arterial blood was sampled and compounds I, II or III were administered in polyethylene glycol at 1 mg/kg I.V. At 30 and 60 minutes after administration, arterial blood was sampled for PRA measurement by the method of Sealy, J. E. et al., Cardiovasc. Med. 2:1079, 1977.

adenosine A1 receptor = molecular target: T1, adenosine A1 receptor (Rattus norvegicus, UniProt P25099); assay: Adenosine A1 receptor binding, inhibition of HPIA binding to crude plasma membranes
T1 construct: Crude plasma membranes were prepared; from tissue; host or cells: crude plasma membranes
T1 sequence (P25099 1-326): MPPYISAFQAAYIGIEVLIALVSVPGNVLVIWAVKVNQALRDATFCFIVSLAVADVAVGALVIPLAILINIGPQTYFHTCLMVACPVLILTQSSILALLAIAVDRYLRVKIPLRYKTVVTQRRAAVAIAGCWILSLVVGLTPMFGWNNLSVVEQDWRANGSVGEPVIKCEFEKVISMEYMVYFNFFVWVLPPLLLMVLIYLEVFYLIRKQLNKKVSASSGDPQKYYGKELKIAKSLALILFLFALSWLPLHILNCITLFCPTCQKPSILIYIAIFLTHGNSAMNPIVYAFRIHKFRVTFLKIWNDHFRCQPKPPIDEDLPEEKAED
Description: The binding potency of compound I, II and III to the adenosine Al receptor was measured according to the method of Schwabe, U. et al., Naunyn Schmeid. Arch. Pharmacol. 321:84, 1982. Crude plasma membranes were prepared and varying concentrations of compounds I, II or III were added to the membrane preparation in the presence of ^125 -N-p hydroxyphenyl isopropyladenosine (HPIA). The affinity of the compounds for the adenosine Al receptor was estimated from the concentrations necessary to inhibit the binding of HPIA by 50% (IC50).

[3] = tested on: spontaneously hypertensive rats (SHR); assay: Mean arterial pressure and heart rate in conscious spontaneously hypertensive rats (IV and intragastric); assay type: in vivo, rat; conditions: for Maximum decrease at 20 mg/kg ig, HR / Maximum decrease at 20 mg/kg ig, MAP: day 2 of oral administration; for ED (100 b/min decrease) / ED (40 mmHg decrease): Rattus norvegicus, IV; for ED (100 b/min decrease): read-out: IV dose to decrease HR by 100 b/min; for ED (40 mmHg decrease): read-out: IV dose to decrease MAP by 40 mmHg
Description: The effects of compounds I and II were tested intravenously or intragastrically in conscious spontaneously hypertensive rats (SHR). The rats were anesthetized with ether and the left carotid artery and right jugular vein were cannulated with polyethylene tubing. The rats were allowed three to five hours recovery from anesthesia for the I.V. studies and 12 to 18 hours for the oral studies. Mean arterial pressure (MAP, in mm/Hg) and heart rate (HR, beats/min.) were measured from the artery; intravenous administration of compounds was performed by injection into the vein. Oral administration was performed by gastric intubation. Compounds were dissolved in DMSO for I.V. studies and injected in volumes of […] or less (N=5 per compound). Doses were 3 to 1,000 mg/kg. Compounds were dissolved in polyethylene glycol for oral administration and injected in volumes of 1 ml/kg at dose of 20 mg/kg/day for three days (N=3 to 6 per compound).
The resting MAP and HR for the SHR ranged between 160-200 mm Hg and 330/350 b/min., respectively.

mice [4] = assay: Behavioral signs of toxicity in mice; assay type: in vivo; design: key to Motor depression / Ptosis / Respiratory depression / Flaccidity / Loss of righting reflex: +: toxic symptom observed; +*: * = 2/7; +^#: ^# = 5/7; conditions: 75 mg/kg IP
Description: as §1

[5] = tested on: adenosine A1 receptor in the granular juxtaglomerular cells of the kidney; conditions: Federation Proceedings 44:879 & 1643, 1985; cited from earlier work
hypertensive models = conditions: Federation Proceedings 44:879 & 1643, 1985; cited from earlier work

| SMILES | Percent ataxic, 0.5 hour (mice [1]) | Percent ataxic, 3 hour (mice [1]) | ataxia / motor toxicity compared to compound I, in words (mice [1]) | prevention of PRA increase, in words [2] | Change in PRA at 30 minutes [2] | Change in PRA at 60 minutes [2] | IC50 (adenosine A1 receptor) | Maximum decrease at 20 mg/kg ig, HR [3] | Maximum decrease at 20 mg/kg ig, MAP [3] | ED (100 b/min decrease) [3] | ED (40 mmHg decrease) [3] | behavioral toxicity in words (mice [4]; 18-20 hours) | Flaccidity (mice [4]; 18-20 hr) | Motor depression (mice [4]; 18-20 hr) | Motor depression (mice [4]; 0.5 hr) | Ptosis (mice [4]; 0.5 hr) | Respiratory depression (mice [4]; 0.5 hr) | Motor depression (mice [4]; 3 hr) | Ptosis (mice [4]; 3 hr) | Respiratory depression (mice [4]; 3 hr) | also measured |
| --- | --- | --- | --- | --- | --- | --- | --- | --- | --- | --- | --- | --- | --- | --- | --- | --- | --- | --- | --- | --- | --- |
| OC[C@H]1O[C@@H](n2cnc3c(NC[C@@H](O)COc4cccc5ccccc45)ncnc32)[C@H](O)[C@@H]1O [II, N-[2R-hydroxy-3-(1-naphthalenyloxy)propyl]-adenosine] | 14 ± 8% | 48 ± 21% | less motor toxicity than compound I; also recorded: less toxic than compound I with regard to ataxia; also recorded: less ataxia at 0.5 or 3 hours as compared to compound I | prevented to the same extent | -11.7 ± 3.5 ngAI/ml/hr | -13.8 ± 4.9 ngAI/ml/hr | 1.2 nM | 202 ± 24 b/min | 62 ± 7 mmHg | 0.036 ± 0.0012 mg/kg | 0.047 ± 0.0012 mg/kg | still producing several of the toxic symptoms | + | + | + | + | + | + | + | + | central nervous system toxicity, comparison in words (central nervous system): less central nervous system toxicity than the S diastereomer; also recorded: less central nervous system toxicity than the racemic mixture; Ptosis (mice [4]; 18-20 hr): +; Respiratory depression (mice [4]; 18-20 hr): +; behavioral toxicity in words (mice [4]; 24 hours): still producing toxic symptoms; Motor depression (mice [4]; 24 hr): +^#; Ptosis (mice [4]; 24 hr): +^#; Respiratory depression (mice [4]; 24 hr): ^# |
| OC[C@H]1O[C@@H](n2cnc3c(NCC(O)COc4cccc5ccccc45)ncnc32)[C@H](O)[C@@H]1O (mixture of isomers) [Compound I, N(6) [2 hydroxy-3-(1 naphthyloxy)propyl]-adenosine] | 33 ± 10% | 95 ± 5% | – | prevented to the same extent | -2.9 ± 5.0 ngAI/ml/hr | -9.4 ± 7.4 ngAI/ml/hr | 1.2 nM | 214 ± 14 b/min | 50 ± 13 mmHg | 0.037 ± 0.0013 mg/kg | 0.052 ± 0.0013 mg/kg | still producing several of the toxic symptoms | +* | + | + | + | + | + | + | + | binding to the adenosine A1 receptor, in words [5]: binds to the adenosine Al receptor; inhibition of renin release into the plasma, in words [5]: inhibit release of renin into the plasma; arterial blood pressure and heart rate, in words (hypertensive models): reducing arterial blood pressure and heart rate; Ptosis (mice [4]; 18-20 hr): +; Respiratory depression (mice [4]; 18-20 hr): +; behavioral toxicity in words (mice [4]; 3 hours): also produced flaccidity and loss of writhing reflex; Flaccidity (mice [4]; 3 hr): +; Loss of righting reflex (mice [4]; 3 hr): + |
| OC[C@H]1O[C@@H](n2cnc3c(NC[C@H](O)COc4cccc5ccccc45)ncnc32)[C@H](O)[C@@H]1O [III, N-[2S-hydroxy-3[1-naphthalenyloxy)propyl]-adenosine] | 14 ± 0% | 57 ± 8% | less motor toxicity than compound I; also recorded: less ataxia at 0.5 or 3 hours as compared to compound I | prevented to the same extent | -6.6 ± 4.0 ngAI/ml/hr | -6.3 ± 3.9 ngAI/ml/hr | 1.2 nM | 177 ± 19 b/min | 50 ± 14 mmHg | 0.031 ± 0.0014 mg/kg | 0.033 ± 0.0012 mg/kg | no toxicity was observed | – | – | + | + | + | + | + | + | behavioral toxicity, overall comparison in words (mice [4]; mice): substantially less toxic than compounds I and II; also recorded: less CNS toxic than compound II with regard to behavioral toxicity |
